According to patent US10047036B2, “Method for the synthesis of hydroxy-triglycerides and uses thereof for the prevention and treatment of diseases” (UNIVERSITAT DE LES ILLES BALEARS, priority 2014, dated 2018):

What was measured:
plasma glucose = plasma glucose in spontaneously hypertensive rats; type: in vivo; details: SHR rats, 9 days, 400 mg/kg every 12 hours, p.o.; fasting 12 hours
From the text: Metabolic and cardiovascular pathologies are closely related. The overfeeding which characterises our society not only gives rise to problems of obesity and excess weight. It is also linked to the appearance of diabetes, dyslipidaemia, hypertension, strokes, arteriosclerosis, ictus, etc. All of these pathologies increase the risk of premature death and can even cause death. In this sense, certain natural oils show a certain efficacy against this type of pathologies, but their power is limited. In contrast, the molecules of the invention have an important effect against the development of this type of pathologies. To be able to study the effects of the compounds of the invention for the prevention and treatment of metabolic and cardiovascular pathologies, hypertensive rats were used (SHR strain, spontaneously hypertensive rats). These rats present obesity, high blood pressure, dyslipidaemia (hypercholesterolemia and hypertriglyceridemia), diabetes, metabolic syndrome and other related health problems. At the same time, research was conducted into the efficacy of the hydroxy-triglycerides for controlling the high levels of glycaemia in SHR rats, and therefore, preventing or curing diabetes. Hypertensive rats (SHR) with an approximate weight of 300 grams were treated with TGM1 during 9 days (400 mg/kg, every 12 h, p.o.). Plasma glucose was measured before starting the treatment (basal) and 9 days later. In all cases, the plasma measurements were conducted in rats kept fasting during 12 hours. In this way, after 9 days of treatment, the levels of glucose in blood were reduced by up to more than 25% for the molecules of the invention (FIG. 5 and Table 4). [table]

triglycerides in plasma = test: plasma triglycerides in SHR rats; type: in vivo; details: 6 days, 400 mg/kg, p.o.
From the text: Metabolic and cardiovascular pathologies are closely related. The overfeeding which characterises our society not only gives rise to problems of obesity and excess weight. It is also linked to the appearance of diabetes, dyslipidaemia, hypertension, strokes, arteriosclerosis, ictus, etc. All of these pathologies increase the risk of premature death and can even cause death. In this sense, certain natural oils show a certain efficacy against this type of pathologies, but their power is limited. In contrast, the molecules of the invention have an important effect against the development of this type of pathologies. To be able to study the effects of the compounds of the invention for the prevention and treatment of metabolic and cardiovascular pathologies, hypertensive rats were used (SHR strain, spontaneously hypertensive rats). These rats present obesity, high blood pressure, dyslipidaemia (hypercholesterolemia and hypertriglyceridemia), diabetes, metabolic syndrome and other related health problems. […] [table]

body weight of SHR rats = type: in vivo; details: 14 days, 600 mg/kg, 12 h, p.o., basal weight 342 grams
From the text: Metabolic and cardiovascular pathologies are closely related. The overfeeding which characterises our society not only gives rise to problems of obesity and excess weight. It is also linked to the appearance of diabetes, dyslipidaemia, hypertension, strokes, arteriosclerosis, ictus, etc. All of these pathologies increase the risk of premature death and can even cause death. In this sense, certain natural oils show a certain efficacy against this type of pathologies, but their power is limited. In contrast, the molecules of the invention have an important effect against the development of this type of pathologies. To be able to study the effects of the compounds of the invention for the prevention and treatment of metabolic and cardiovascular pathologies, hypertensive rats were used (SHR strain, spontaneously hypertensive rats). These rats present obesity, high blood pressure, dyslipidaemia (hypercholesterolemia and hypertriglyceridemia), diabetes, metabolic syndrome and other related health problems.

[1] = target: T1, Glycogen Branching Enzyme 1 (GBE1) wild type (Homo sapiens, UniProt Q04446); test: activity of purified enzyme GBE1 in the presence of PC membranes; type: biochemical; details: PC membranes with TGM 20 mol %; non-mutated enzyme = 100% (0.76 nmol/min · ng protein)
T1 sequence (Q04446 1-702): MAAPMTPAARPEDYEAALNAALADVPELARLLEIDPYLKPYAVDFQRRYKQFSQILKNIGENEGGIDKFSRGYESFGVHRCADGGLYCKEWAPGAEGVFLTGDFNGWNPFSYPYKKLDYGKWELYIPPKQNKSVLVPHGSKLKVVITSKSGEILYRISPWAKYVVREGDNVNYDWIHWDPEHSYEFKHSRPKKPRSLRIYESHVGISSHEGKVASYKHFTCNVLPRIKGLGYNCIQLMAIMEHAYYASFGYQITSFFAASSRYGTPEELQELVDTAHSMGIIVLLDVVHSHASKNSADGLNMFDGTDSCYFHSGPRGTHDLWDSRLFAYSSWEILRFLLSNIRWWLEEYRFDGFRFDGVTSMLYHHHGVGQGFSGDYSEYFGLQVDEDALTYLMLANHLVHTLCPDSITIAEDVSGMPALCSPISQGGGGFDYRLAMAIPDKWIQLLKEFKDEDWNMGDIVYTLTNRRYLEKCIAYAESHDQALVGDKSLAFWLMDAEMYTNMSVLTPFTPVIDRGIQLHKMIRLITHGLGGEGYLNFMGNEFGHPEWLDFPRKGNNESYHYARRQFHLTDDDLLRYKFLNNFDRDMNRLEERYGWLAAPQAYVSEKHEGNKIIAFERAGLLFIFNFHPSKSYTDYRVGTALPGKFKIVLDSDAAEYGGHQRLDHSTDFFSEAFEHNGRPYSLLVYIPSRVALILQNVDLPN
From the text: It has been possible to observe that the molecules of the present invention are capable of regulating the activity of the Glycogen Branching Enzyme 1 (GBE1) and its joining to membranes (Table 9). Alterations in this enzyme give rise to a neurodegenerative process known as APBD (Kakhlon et al., 2013). It has been described that a modification of tyrosine in position 329 of this enzyme (Y329S) causes a reduction in the activity of GBE1. This gives rise to a lower branching of glycogen, which precipitates forming […] which interfere with cell activity (Kakhlon et al., 2013). This gives rise to problems in the function of certain organs, to motor problems and, in some cases, to cognitive decline. We have been able to verify that the hydroxy-triglycerides of the present invention are capable of regulating the joining of native GBE1 (wild type, wt) and with the variant Y329S to membranes and to increase the activity of the form Y329S, which is very low in normal conditions (Table 9). For this reason, the molecules of the present invention are effective for the prevention and treatment of the polyglucosan bodies disease, APBD.

[2] = system: transgenic rat with 5 mutations of human familial Alzheimer's (Tag); test: radial maze test in transgenic rats with Alzheimer's; type: in vivo; details: for Errors made in the radial maze: Tag rats, 50 mg/kg p.o. daily, 100% = healthy animals without Alzheimer's
Procedure: In order to study Alzheimer's disease a transgenic rat model was used with 5 mutations which appear in human familiar Alzheimer's (symbolised as Tag, and abbreviated Tg). This model of Alzheimer's is very severe, and the animals already show a cognitive deficit at 2 months of age. To carry out this experiment, both young rats (of 3 months of age) and aged rats (of 10 months of age) were used and treated for 3 months with the hydroxy-triglycerides of the present invention (50 mg/kg day, p.o.). The rats were subjected to a low-calorie diet so that they would be hungry and carry out a test in a radial maze, in which food was placed in 4 of the device's 8 arms (asymmetrically), quantifying the number of errors committed until the exercise was completed. […]
The control animals were treated with vehicle (saline) and the rest with 50 mg/kg (p.o.) daily of the indicated compound.

CCC=CCC=CCC=CCCCCCCC(O)C(=O)OCC(COC(=O)C(O)CCCCCCC=CCC=CCC=CCC)OC(=O)C(O)CCCCCCC=CCC=CCC=CCC (centres unmarked) [TGM3A, 1,2,3-tri(2′-hydroxy-octadec-9′,12′,15′-trienoyl)glycerol]
Δ G, change in glucose levels in plasma (plasma glucose): -14 mg/dL | TG, levels of triglycerides in plasma (triglycerides in plasma): 54.8 ± 4 mg/dL | ΔWeight, change in weight (body weight of SHR rats): -14 ± 4 g | Activity GBE1wt [1]: 88 ± 2% | Errors made in the radial maze [2]: 134.5%

CCCCCC(O)C(=O)OCC(COC(=O)C(O)CCCCC)OC(=O)C(O)CCCCC (centres unmarked) [TGM0, 1,2,3-tri(2′-hydroxyheptanoyl)glycerol]
Δ G, change in glucose levels in plasma (plasma glucose): -4 mg/dL | TG, levels of triglycerides in plasma (triglycerides in plasma): 69.7 ± 7 mg/dL | ΔWeight, change in weight (body weight of SHR rats): -4 ± 2 g | Activity GBE1wt [1]: 95 ± 12% | Errors made in the radial maze [2]: 153.1%

CCCCCCCCC=CCCCCCCC(O)C(=O)OCC(COC(=O)C(O)CCCCCCC=CCCCCCCCC)OC(=O)C(O)CCCCCCC=CCCCCCCCC (centres unmarked) [TGM1, 1,2,3-tri(2′-hydroxy-octadec-9′-enoyl)glycerol]
Δ G, change in glucose levels in plasma (plasma glucose): -20 mg/dL | TG, levels of triglycerides in plasma (triglycerides in plasma): 51.6 ± 4 mg/dL | ΔWeight, change in weight (body weight of SHR rats): -22 ± 5 g | Activity GBE1wt [1]: 89 ± 10% | Errors made in the radial maze [2]: 128.9%

CCC=CCC=CCC=CCC=CCC=CCC=CCC(O)C(=O)OCC(COC(=O)C(O)CC=CCC=CCC=CCC=CCC=CCC=CCC)OC(=O)C(O)CC=CCC=CCC=CCC=CCC=CCC=CCC (centres unmarked) [TGM6, 1,2,3-tri(2′-hydroxy-docosa-4′,7′,10′,13′,16′,19′-hexanoyl)glycerol]
Δ G, change in glucose levels in plasma (plasma glucose): -16 mg/dL | TG, levels of triglycerides in plasma (triglycerides in plasma): 49.4 ± 4 mg/dL | ΔWeight, change in weight (body weight of SHR rats): -19 ± 4 g | Activity GBE1wt [1]: 33 ± 3% | Errors made in the radial maze [2]: 84.7% | number of errors in the radial maze (FIG. 7A) ([2]; young and aged Tg rats, 3 months, 50 mg/kg day p.o., errors of first week of tests = 100%): below 100%

CCCCCC=CCC=CCC=CCC=CCCC(O)C(=O)OCC(COC(=O)C(O)CCC=CCC=CCC=CCC=CCCCCC)OC(=O)C(O)CCC=CCC=CCC=CCC=CCCCCC (centres unmarked) [TGM4, 1,2,3-tri(2′-hydroxy-eicosa-5′,8′,11′,14′-tetraenoyl)glycerol]
Δ G, change in glucose levels in plasma (plasma glucose): -5 mg/dL | TG, levels of triglycerides in plasma (triglycerides in plasma): 69.3 ± 3 mg/dL | ΔWeight, change in weight (body weight of SHR rats): -25 ± 5 g | Activity GBE1wt [1]: 31 ± 4% | Errors made in the radial maze [2]: 101.0%

CCCCCC=CCC=CCC=CCCCC(O)C(=O)OCC(COC(=O)C(O)CCCC=CCC=CCC=CCCCCC)OC(=O)C(O)CCCC=CCC=CCC=CCCCCC (centres unmarked) [TGM3G, 1,2,3-tri(2′-hydroxy-octadec-6′,9′,12′-trienoyl)glycerol]
Δ G, change in glucose levels in plasma (plasma glucose): -9 mg/dL | TG, levels of triglycerides in plasma (triglycerides in plasma): 64.1 ± 5 mg/dL | ΔWeight, change in weight (body weight of SHR rats): -12 ± 3 g | Activity GBE1wt [1]: 69 ± 7% | Errors made in the radial maze [2]: 156.8%

CCC=CCC=CCC=CCC=CCC=CCCC(O)C(=O)OCC(COC(=O)C(O)CCC=CCC=CCC=CCC=CCC=CCC)OC(=O)C(O)CCC=CCC=CCC=CCC=CCC=CCC (centres unmarked) [TGM5, 1,2,3-tri(2′-hydroxy-eicosa-5′,8′,11′,14′,17′-pentaenoyl)glycerol]
Δ G, change in glucose levels in plasma (plasma glucose): -13 mg/dL | TG, levels of triglycerides in plasma (triglycerides in plasma): 56.2 ± 3 mg/dL | ΔWeight, change in weight (body weight of SHR rats): -9 ± 3 g | Activity GBE1wt [1]: 24 ± 2% | Errors made in the radial maze [2]: 121.3%

CCCCCC=CCC=CCCCCCCC(O)C(=O)OCC(COC(=O)C(O)CCCCCCC=CCC=CCCCCC)OC(=O)C(O)CCCCCCC=CCC=CCCCCC (centres unmarked) [TGM2, 1,2,3-tri(2′-hydroxy-octadec-9′,12′-dienoyl)glycerol]
Δ G, change in glucose levels in plasma (plasma glucose): -7 mg/dL | TG, levels of triglycerides in plasma (triglycerides in plasma): 61.7 ± 3 mg/dL | ΔWeight, change in weight (body weight of SHR rats): -32 ± 6 g | Activity GBE1wt [1]: 72 ± 5% | Errors made in the radial maze [2]: 143.2%
